Calls of active or inactive are those of the source. The calls are words filed in the database; no cut-off is given here.
Assays:
[1] = system: PC-3; test: Growth inhibition of human PC3 cells after 48 hrs by SRB assay; assay type: functional; settings: PC-3, 48 h
[2] = system: DU-145; test: Growth inhibition of human DU145 cells after 48 hrs by SRB assay; assay type: functional; settings: DU-145, 48 h
[3] = system: MCF7; test: Growth inhibition of human MCF7 cells after 48 hrs by SRB assay; assay type: functional; settings: MCF7, 48 h
[4] = system: MDA-MB-231; test: Growth inhibition of human MDA-MB-231 cells after 48 hrs by SRB assay; assay type: functional; settings: MDA-MB-231, 48 h
[5] = Growth inhibition of human Hs578T cells after 48 hrs by SRB assay; assay type: functional; settings: Hs-578T
[6] = Growth inhibition of human BT549 cells after 48 hrs by SRB assay; assay type: functional; settings: BT-549, 48 h
[7] = system: T47D; test: Growth inhibition of human T47D cells after 48 hrs by SRB assay; assay type: functional
[8] = system: MDA-MB-468; test: Growth inhibition of human MDA-MB-468 cells after 48 hrs by SRB assay; assay type: functional; settings: MDA-MB-468, 48 h
[9] = Growth inhibition of human LOXIMVI cells after 48 hrs by SRB assay; assay type: functional; settings: LOX IMVI
[10] = system: Malme-3M; test: Growth inhibition of human MALME-3M cells after 48 hrs by SRB assay; assay type: functional
[11] = system: M14; test: Growth inhibition of human M14 cells after 48 hrs by SRB assay; assay type: functional; settings: M14, 48 h
[12] = system: MDA-MB-435; test: Growth inhibition of human MDA-MB-435 cells after 48 hrs by SRB assay; assay type: functional; settings: MDA-MB-435, 48 h
[13] = system: SK-MEL-2; test: Growth inhibition of human SK-MEL-2 cells after 48 hrs by SRB assay; assay type: functional; settings: SK-MEL-2, 48 h
[14] = system: SK-MEL-28; test: Growth inhibition of human SK-MEL-28 cells after 48 hrs by SRB assay; assay type: functional; settings: SK-MEL-28, 48 h
[15] = system: SK-MEL-5; test: Growth inhibition of human SK-MEL-5 cells after 48 hrs by SRB assay; assay type: functional; settings: SK-MEL-5, 48 h
[16] = Growth inhibition of human UACC62 cells after 48 hrs by SRB assay; assay type: functional; settings: UACC-62, 48 h
[17] = Growth inhibition of human UACC257 cells after 48 hrs by SRB assay; assay type: functional; settings: UACC-257, 48 h
[18] = system: CCRF-CEM; test: Growth inhibition of human CCRF-CEM cells after 48 hrs by SRB assay; assay type: functional
[19] = system: HL-60(TB); test: Growth inhibition of human HL-60(TB) cells after 48 hrs by SRB assay; assay type: functional; settings: HL-60, 48 h
[20] = system: K562; test: Growth inhibition of human K562 cells after 48 hrs by SRB assay; assay type: functional; settings: K562, 48 h
[21] = Growth inhibition of human MOLT4 cells after 48 hrs by SRB assay; assay type: functional; settings: MOLT-4, 48 h
[22] = system: SR; test: Growth inhibition of human SR cells after 48 hrs by SRB assay; assay type: functional
[23] = system: RPMI-8226; test: Growth inhibition of human RPMI8226 cells after 48 hrs by SRB assay; assay type: functional; settings: RPMI-8226, 48 h
[24] = system: A549; test: Growth inhibition of human A549 cells after 48 hrs by SRB assay; assay type: functional; settings: A549, 48 h
[25] = Growth inhibition of human EKVX cells after 48 hrs by SRB assay; assay type: functional
[26] = system: HOP-62; test: Growth inhibition of human HOP62 cells after 48 hrs by SRB assay; assay type: functional; settings: HOP-62, 48 h
[27] = system: NCI-H226; test: Growth inhibition of human NCI-H226 cells after 48 hrs by SRB assay; assay type: functional; settings: NCI-H226, 48 h
[28] = system: NCI-H23; test: Growth inhibition of human NCI-H23 cells after 48 hrs by SRB assay; assay type: functional; settings: NCI-H23, 48 h
[29] = system: NCI-H322M; test: Growth inhibition of human NCI-H322M cells after 48 hrs by SRB assay; assay type: functional
[30] = system: NCI-H460; test: Growth inhibition of human NCI-H460 cells after 48 hrs by SRB assay; assay type: functional; settings: NCI-H460, 48 h
[31] = system: NCI-H522; test: Growth inhibition of human NCI-H522 cells after 48 hrs by SRB assay; assay type: functional; settings: NCI-H522, 48 h
[32] = system: COLO 205; test: Growth inhibition of human COLO205 cells after 48 hrs by SRB assay; assay type: functional; settings: COLO 205, 48 h
[33] = Growth inhibition of human HCC2998 cells after 48 hrs by SRB assay; assay type: functional; settings: HCC 2998, 48 h
[34] = system: HCT-116; test: Growth inhibition of human HCT116 cells after 48 hrs by SRB assay; assay type: functional; settings: HCT-116, 48 h
[35] = Growth inhibition of human HCT15 cells after 48 hrs by SRB assay; assay type: functional; settings: HCT-15, 48 h
[36] = system: HT-29; test: Growth inhibition of human HT-29 cells after 48 hrs by SRB assay; assay type: functional; settings: HT-29, 48 h
[37] = system: KM12; test: Growth inhibition of human KM12 cells after 48 hrs by SRB assay; assay type: functional; settings: KM12, 48 h
[38] = system: SW-620; test: Growth inhibition of human SW620 cells after 48 hrs by SRB assay; assay type: functional; settings: SW-620, 48 h
[39] = system: SF-268; test: Growth inhibition of human SF268 cells after 48 hrs by SRB assay; assay type: functional; settings: SF-268, 48 h
[40] = Growth inhibition of human SF295 cells after 48 hrs by SRB assay; assay type: functional; settings: SF-295, 48 h
[41] = Growth inhibition of human SF539 cells after 48 hrs by SRB assay; assay type: functional; settings: SF-539, 48 h
[42] = system: SNB-19; test: Growth inhibition of human SNB19 cells after 48 hrs by SRB assay; assay type: functional; settings: SNB-19, 48 h
[43] = system: SNB-75; test: Growth inhibition of human SNB75 cells after 48 hrs by SRB assay; assay type: functional; settings: SNB-75, 48 h
[44] = system: U-251; test: Growth inhibition of human U251 cells after 48 hrs by SRB assay; assay type: functional; settings: U-251, 48 h
[45] = system: IGROV-1; test: Growth inhibition of human IGROV1 cells after 48 hrs by SRB assay; assay type: functional; settings: IGROV-1, 48 h
[46] = Growth inhibition of human OVCAR3 cells after 48 hrs by SRB assay; assay type: functional; settings: OVCAR-3, 48 h
[47] = Growth inhibition of human OVCAR4 cells after 48 hrs by SRB assay; assay type: functional; settings: OVCAR-4, 48 h
[48] = Growth inhibition of human OVCAR5 cells after 48 hrs by SRB assay; assay type: functional; settings: OVCAR-5, 48 h
[49] = Growth inhibition of human OVCAR8 cells after 48 hrs by SRB assay; assay type: functional; settings: OVCAR-8, 48 h
[50] = Growth inhibition of human NCI-ADR-RES cells after 48 hrs by SRB assay; assay type: functional
[51] = system: SK-OV-3; test: Growth inhibition of human SKOV3 cells after 48 hrs by SRB assay; assay type: functional; settings: SK-OV-3, 48 h
[52] = system: 786-0; test: Growth inhibition of human 786-0 cells after 48 hrs by SRB assay; assay type: functional; settings: 786-0, 48 h
[53] = system: A498; test: Growth inhibition of human A498 cells after 48 hrs by SRB assay; assay type: functional; settings: A498, 48 h
[54] = system: ACHN; test: Growth inhibition of human ACHN cells after 48 hrs by SRB assay; assay type: functional
[55] = system: CAKI-1; test: Growth inhibition of human Caki1 cells after 48 hrs by SRB assay; assay type: functional; settings: CAKI-1, 48 h
[56] = system: SN12C; test: Growth inhibition of human SN12C cells after 48 hrs by SRB assay; assay type: functional
[57] = system: TK-10; test: Growth inhibition of human TK10 cells after 48 hrs by SRB assay; assay type: functional; settings: TK-10, 48 h
[58] = Growth inhibition of human UO31 cells after 48 hrs by SRB assay; assay type: functional; settings: UO-31, 48 h
[59] = system: MCF7; test: Growth inhibition of human MCF7 cells assessed as cell viability at 4 uM after 24 hrs by MTT assay; assay type: functional, cell-based

COc1ccc(-c2nc3ccccn3c2/C=C/C(=O)c2cc(OC)c(OC)c(OC)c2)cc1OC
GI50 [1]: 3710 nM
GI50 [2]: 2630 nM
GI50 [3]: 2760 nM
GI50 [4]: 3280 nM
GI50 [5]: 1850 nM
GI50 [6]: 890 nM
GI50 [7]: 3010 nM
GI50 [8]: 2280 nM
GI50 [9]: 2260 nM
GI50 [10]: 2360 nM
GI50 [11]: 4480 nM
GI50 [12]: 1780 nM
GI50 [13]: 2370 nM
GI50 [14]: 3300 nM
GI50 [15]: 1500 nM
GI50 [16]: 4860 nM
GI50 [17]: 3240 nM
GI50 [18]: 1540 nM
GI50 [19]: 2530 nM
GI50 [20]: 2990 nM
GI50 [21]: 2180 nM
GI50 [22]: 1900 nM
GI50 [23]: 390 nM
GI50 [24]: 3860 nM
GI50 [25]: 1710 nM
GI50 [26]: 4420 nM
GI50 [27]: 6100 nM
GI50 [28]: 3780 nM
GI50 [29]: 2080 nM
GI50 [30]: 2990 nM
GI50 [31]: 2740 nM
GI50 [32]: 3920 nM
GI50 [33]: 3800 nM
GI50 [34]: 2620 nM
GI50 [35]: 3730 nM
GI50 [36]: 3200 nM
GI50 [37]: 2520 nM
GI50 [38]: 2780 nM
GI50 [39]: 3580 nM
GI50 [40]: 1850 nM
GI50 [41]: 2710 nM
GI50 [42]: 4910 nM
GI50 [43]: 3920 nM
GI50 [44]: 2910 nM
GI50 [45]: 3030 nM
GI50 [46]: 2470 nM
GI50 [47]: 2430 nM
GI50 [48]: 7380 nM
GI50 [49]: 2830 nM
GI50 [50]: 2180 nM
GI50 [51]: 4920 nM
GI50 [52]: 3740 nM
GI50 [53]: 2930 nM
GI50 [54]: 3220 nM
GI50 [55]: 1390 nM
GI50 [56]: 4100 nM
GI50 [57]: 3280 nM
GI50 [58]: 550 nM

COc1ccc(/C=C/C(=O)c2cc(OC)c(OC)c(OC)c2)cc1O
inhibition [59]: Active

— ChEMBL document CHEMBL3217491, “Design, synthesis and biological evaluation of imidazopyridine/pyrimidine-chalcone derivatives as potential anticancer agents” (2010)
